In the NIST ThermoML archive (doi:10.1021/je401066j):
± gives the expanded uncertainty stated by the source.

Conditions: 101 kPa, Liquid mixture 1, Drop volume

interfacial tension (288.2 K): 51.4 ± 0.4 mN/m
interfacial tension (293.2 K): 51 ± 0.4 mN/m
interfacial tension (298.2 K): 50.7 ± 0.4 mN/m
interfacial tension (303.2 K): 50.4 ± 0.4 mN/m
interfacial tension (308.2 K): 50.2 ± 0.4 mN/m
SMILES: CCCCCC [hexane] + O
